From US4221805A, “Method of inducing platelet antiaggregation activity” (priority 1978, dated 1980)
Entries after “also recorded” stand apart in the source; their conditions may differ.

Columns and labels:
mice = experiment: Acute toxicity in mice, endoperitoneal administration (LD50); format: in vivo; conditions: 20 animals per dose
Experimental: (§1) A total of 240 albino mice, 120 male and 120 female, of the Swiss strain and having an average weight of about 20 grams were used. The animals were divided into groups of 10 animals each, and kept caged for some days in an environment at a constant temperature (21°±1° C.) and humidity (60±5%). They were then fasted for 24 hours before the experiment, but were given free access to water.
(§2) The substance indicated by MRAP2 was administered, in a single administration, either orally or endoperitoneally. The LD50 was evaluated for each of the administration methods, using the method of Litchfield and Wilcoxon, J.Pharmacology, 96, 99, […], based on the mortality recorded for each group of mice over the seven days following administration.
(§3) Six groups of 20 animals, 10 male and 10 female, which had been given the active principle dissolved in a physiological solution were used.

[1] = as above; format: in vivo; conditions: mouse, in vivo, ip
Experimental: as §1, §2, §3

rats [2] = experiment: Acute toxicity in rats, endoperitoneal administration (LD50); format: in vivo; conditions: 20 animals per dose
Experimental: (§4) 200 albino rats, 100 male and 100 female, of the Wistar strain and weighing 130-150 grams were divided into groups of 10 animals each.
(§5) After being caged for some days at constant temperature (21°±1° C.) and humidity (60±5%), the animals were fasted for 24 hours before treatment.
(§6) The MRAP2 was administered in a single administration either orally or endoperitoneally, following the method heretofore described.
(§7) Teh LD50 was evaluated for each method of administration using the Litchfield and Wilcoxon method, based on the percentage mortality recorded in each group of rats during the seven days following treatment.
(§8) Five groups of 20 animals, 10 male and 10 female were used.

[3] = as above; format: in vivo; conditions: rat, in vivo, ip
Experimental: as §4, §5, §6, §7, §8

rats [4] = experiment: Acute toxicity in rats, oral administration (LD50); format: in vivo; conditions: 20 animals per dose
Experimental: as §4, §5, §6, §7, §8

[5] = Acute toxicity in rats, oral administration (LD50); format: in vivo; conditions: rat, in vivo
Experimental: as §4, §5, §6, §7, §8

platelet aggregation = experiment: In vivo platelet antiaggregation activity; parameters: species or system male rats, Wistar strain; conditions: rats
Experimental: This experiment was carried out on male rats of the Wistar strain having a weight of 320±20 grams. Both the MRAP2 and the aspirin (used as a comparison drug) were dissolved in a physiological solution, and the solutions, adjusted to pH 7.4, were administered orally in doeses of 3 mg/kg to two groups of three rats each. […] The concentration of the solution was adjusted to contain 100 mg of MRAP2 per ml. Blood samples were drawn from each animal 72 and 120 hours after treatment, for checking the platelet aggregation. In calculating the activity, the previous method was used (the average of the three maximum amplitudes of the curves obtained with the untreated rats was given the control figure of 100%).

[6] = system: human PRP (Platelet Rich Plasma), platelet aggregation induced by ADP; experiment: In vitro platelet antiaggregation activity (Born method, ADP-induced); format: cell-based
Experimental: The method described by Born (Nature, 194, 927, 1962) was followed for this test, based on the increase in the platelet aggregation induced by ADP. The experiment was conducted using a human PRP (Platelet Rich Plasma) pool from four healthy volunteers who had not taken any drugs for ten days. The PRP was adjusted to 280,000±20,000 and kept at ambient temperature for the entire duration of the test.
400 μl of PRP and 100 μl of MRAP2 dissolved in a physiological solution and adjusted to a pH of 7.4 were placed in plastic test tubes. Three doses of the drug in question (0.181, 0.904 and 1.818 mg/ml) were used.
Three dilutions of aspirin were prepared under the same conditions for use as a comparison drug. Two minutes after contact between the drug and PRP, the test tube was inserted into the aggregometer cell (EEI, Model 169 with Corning Recorder Mod.840). After 60 seconds, ADP (10^-3 mM) was added and the aggregation was recorded. In calculating the antiaggregation activity, reference was made to the maximum amplitude of the aggregation curved obtained with ADP. Assuming this amplitude to be 100, the amplitudes of the curves obtained with the various doses of MRAP2 and aspirin were calculated as a percentage.

With `Cl.Clc1ccccc1CN1CCCC1` [MRAP2, N-(2-chlorobenzyl)-pyrrolidine hydrochloride] the “No. of animals dead” value (mice; 75 mg/kg) was 0, the “No. of animals dead” value (mice; 100 mg/kg) was 2 and the “No. of animals dead” value (mice; 150 mg/kg) was 18. For the same molecule, the “No. of animals dead” value (mice; 200 mg/kg) was 20, the “No. of animals dead” value (mice; 300 mg/kg) was 20 and the “No. of animals dead” value (mice; 400 mg/kg) was 20. For the same molecule, the mortality at 168 h ([1]; 75 mg/kg) was 0%, the mortality at 168 h ([1]; 100 mg/kg) was 10% and the mortality at 168 h ([1]; 150 mg/kg) was 90%. It also gave a mortality at 168 h ([1]; 200 mg/kg) of 100%, a mortality at 168 h ([1]; 300 mg/kg) of 100% and a mortality at 168 h ([1]; 400 mg/kg) of 100%. The LD50 at 168 h ([1]; single administration, 7 days, 95% limits 105-130) was 116 mg/kg, the “No. of animals dead” value (rats [2]; 50 mg/kg) was 0 and the “No. of animals dead” value (rats [2]; 100 mg/kg) was 1. The “No. of animals dead” value (rats [2]; 200 mg/kg) was 11, the “No. of animals dead” value (rats [2]; 300 mg/kg) was 17 and the “No. of animals dead” value (rats [2]; 400 mg/kg) was 20. The mortality at 168 h ([3]; 50 mg/kg) was 0%, the mortality at 168 h ([3]; 100 mg/kg) was 5% and the mortality at 168 h ([3]; 200 mg/kg) was 55%. It also gave a mortality at 168 h ([3]; 300 mg/kg) of 85%, a mortality at 168 h ([3]; 400 mg/kg) of 100% and an LD50 at 168 h ([3]; single administration, 7 days, 95% limits 174-203) of 188 mg/kg. For the same molecule, the “No. of animals dead” value (rats [4]; 400 mg/kg) was 0, the “No. of animals dead” value (rats [4]; 500 mg/kg) was 4 and the “No. of animals dead” value (rats [4]; 600 mg/kg) was 8. The “No. of animals dead” value (rats [4]; 800 mg/kg) was 15, the “No. of animals dead” value (rats [4]; 1000 mg/kg) was 20 and the mortality at 168 h ([5]; 400 mg/kg) was 0%. The mortality at 168 h ([5]; 500 mg/kg) was 20%, the mortality at 168 h ([5]; 600 mg/kg) was 40% and the mortality at 168 h ([5]; 800 mg/kg) was 75%. The mortality at 168 h ([5]; 1000 mg/kg) was 100%, the LD50 at 168 h ([5]; single administration, 7 days, 95% limits 631-714) was 675 mg/kg and the “antiaggregation activity in vivo (in words)” value (platelet aggregation; oral 3 mg/kg, comparison with aspirin) was “superior to that of aspirin”. For the same molecule, the “% platelet antiaggregation activity on day 3” value (platelet aggregation; single oral dose 3 mg/kg, day 3 (72 hours)) was 38%, the “% platelet aggregation on day 3” value (platelet aggregation; single oral dose 3 mg/kg, day 3 (72 hours), controls = 100) was 62% and the “% platelet antiaggregation activity on day 5” value (platelet aggregation; single oral dose 3 mg/kg, day 5 (120 hours)) was 37%. For the same molecule, the “% platelet aggregation on day 5” value (platelet aggregation; single oral dose 3 mg/kg, day 5 (120 hours), controls = 100) was 63%, the inhibition of platelet aggregation at 181 µg/mL ([6]; Platelet, ADP 10^-3 mM, drug 0.181 mg/ml) was 26% and the activity at 181 µg/mL ([6]; Platelet, ADP 10^-3 mM, drug 0.181 mg/ml, serum + ADP = 100) was 74%. For the same molecule, the inhibition of platelet aggregation at 904 µg/mL ([6]; Platelet, ADP 10^-3 mM, drug 0.904 mg/ml) was 91%, the activity at 904 µg/mL ([6]; Platelet, ADP 10^-3 mM, drug 0.904 mg/ml, serum + ADP = 100) was 9% and the inhibition of platelet aggregation at 1818 µg/mL ([6]; Platelet, ADP 10^-3 mM, drug 1.818 mg/ml) was 92%. For the same molecule, the activity at 1818 µg/mL ([6]; Platelet, ADP 10^-3 mM, drug 1.818 mg/ml, serum + ADP = 100) was 8% and the “platelet antiaggregation activity (in words)” value ([6]; in vitro, ADP, manifested by the dose of 0.904 mg/ml, comparison with aspirin, hydrochloride) was “considerable platelet antiaggregation activity; also recorded: clearly superior to that possessed by aspirin”.
